Test results from patent US12708620B2, “Prodrugs and medical uses thereof” (priority 2018, dated 2026).
Read-outs that look alike come from different tables or passages of the source.

Legend:
BT-474 = assay: resazurin-based potency assay, normoxia vs anoxia; type: cell-based, human; details: for IC50: Homo sapiens, 4 h exposure then 96 h
Method: (§1) The IC50 values were obtained using the resazurin-based potency assay under anoxic (<0.01% O2) and/or normoxic conditions (21% O2). The hypoxia cytotoxicity ratio (HCR) is calculated as the ratio of IC50 value […] (HCR=IC50 normoxia/IC50 anoxia).
(§2) For anoxic condition, the complete medium for each cell line (25 ml in a T25 or 80 ml in a T80) was equilibrated in the anoxic chamber 48 h before use to allow an as large as possible interchange between media and atmosphere, agitating the flask once a day and just before use. The 96-well plates for cell seeding and the 96-well plates for preparation of a mother plate containing the compound to be tested (e.g. Cpd.11 Ms) at appropriate concentrations as well as disposable reagent reservoirs and pipet tips that are required for cell seeding under anoxic conditions were placed in anoxia at least 72 h before use. The mother plate for treatment of the cells under anoxia was prepared with anoxic medium and in anoxia pre-incubated plastics, the mother plate for treatment of the cells in normoxia was prepared with normoxic medium in a standard cell culture hood.
(§3) Cell seeding was performed starting from a cell suspension (70% confluent flasks of cells). Appropriate cell numbers/volumes were used at the pre-determined cell density (typically 100 μl/well) as determined by performing a growth curve experiment were calculated. For anoxic conditions, the appropriate number of cells was transferred to the anoxic chamber and diluted to the appropriate cell concentration in anoxic complete medium. The cells were allowed to adhere for 2 hours in the anoxic chamber at 37° C. In normoxic conditions, usual cell seeding and complete medium protocols were used (in a volume of 100 μl/well in 96-well plates). The cells were allowed to adhere for 2 hours at 37° C. in a regular cell culture CO2 incubator. In both conditions, the remaining empty wells in 96-well plates were filled with 200 μl anoxic or normoxic medium to prevent evaporation.
(§4) Fresh Cpd.11 Ms stock solution was thawed just before the experiment and shielded from the light. A 96-well microtiter plate was filled with 176.4 μl of complete normoxic (RT) or anoxic medium in the first column and 120 μl of complete normoxic or anoxic medium with 2% DMSO for the other columns of wells. 3.6 μl per well of the compound stock solution (Cpd.11, Cpd.11 Ms, Cpd.11c, or Cpd.11d; 150 mM) was added to the first column. The solution of the first column was pipetted up and down and 60 μl was transferred to the second column to perform 1/3 serial dilutions pipetting up and down 3 times between each transfer. This was repeated until the 11th column. No Cpd.11 Ms was added to the 12th column. The plate was prepared no longer than 30 minutes before use and protected from direct light exposure. Two hours after seeding the cells, 100 μl of the mother plate was added to each well and plates remained for 4 h in the anoxic chamber or in cell culture incubator at 37° C. After 4 h, the plate in the anoxic chamber was transferred to normoxia. Visual inspection of all plates (few random wells per plate) under microscope was performed and medium was removed from all plates by aspiration. Cells were washed once with 200 μl PBS (RT) and 200 μl of fresh normoxic complete medium (RT) was added to each well (including all wells without cells). All plates were incubated for 96 hours in normoxia at 37° C. in a standard cell culture incubator.
(§5) For the cell viability assay, the resazurin final working solution was prepared freshly by diluting the resazurin stock solution (0.1 mg/ml) 1/10 in complete medium (RT) of the respective cell lines to obtain a final concentration of 0.01 mg/ml resazurin. After 96 hours incubation in normoxia, a visual inspection of all the plates (few random wells per plate) was performed under the microscope and the medium in each well was removed by aspiration. […]

BxPC-3 = assay: resazurin-based potency assay, normoxia vs anoxia; type: cell-based, human; details: for IC50: Homo sapiens, 4 h exposure then 96 h
Method: as §1, §2, §3, §4, §5

DMS114 = assay: resazurin-based potency assay, normoxia vs anoxia; type: cell-based, human; details: for IC50: Homo sapiens, 4 h exposure then 96 h
Method: as §1, §2, §3, §4, §5

HCC1937 = assay: resazurin-based potency assay, normoxia vs anoxia; type: cell-based, human; details: for IC50: Homo sapiens, 4 h exposure then 96 h
Method: as §1, §2, §3, §4, §5

MDA-MB-231 = assay: resazurin-based potency assay, normoxia vs anoxia; type: cell-based, human; details: for IC50: Homo sapiens, 4 h exposure then 96 h
Method: as §1, §2, §3, §4, §5

NCI-H1650 = assay: resazurin-based potency assay, normoxia vs anoxia; type: cell-based, human; details: for IC50: Homo sapiens, 4 h exposure then 96 h
Method: as §1, §2, §3, §4, §5

NCI-H1975 = assay: resazurin-based potency assay, normoxia vs anoxia; type: cell-based, human; details: for IC50: Homo sapiens, 4 h exposure then 96 h
Method: as §1, §2, §3, §4, §5

PANC-1 = assay: resazurin-based potency assay, normoxia vs anoxia; type: cell-based, human; details: for IC50: Homo sapiens, 4 h exposure then 96 h
Method: as §1, §2, §3, §4, §5

[1] = system: panel of cancer cell lines; assay: cytotoxicity across the tested cancer cell lines (summary statements); type: cell-based, human
Method: as §1
as §2, with “The mother plate for treatment of the cells under anoxia was prepared with anoxic medium and in anoxia pre-incubated plastics, the mother plate for treatment of the cells in normoxia was prepared with normoxic medium in a standard cell culture hood.” left out
Cell seeding was performed starting from a cell suspension (70% confluent flasks of cells). Appropriate cell numbers/volumes were used at the pre-determined cell density (typically 100 μl/well) as determined by performing a growth curve experiment were calculated. […]

SW1990 tumor xenograft = assay: pancreatic cancer xenograft model; type: in vivo, BALB/c Nude Mice; details: 600 mg/kg IP, hypoxic status absent, methanesulfonate
[2] = system: MDA-MB-231 tumor xenograft; assay: triple negative breast cancer xenograft model; type: in vivo, BALB/c Nude Mice; details: MDA-MB-231 xenograft; single treatment cycle
MiaPaca-2 = assay: in vitro cell culture sensitivity in anoxic conditions; type: cell-based, human
[3] = stability to gamma irradiation sterilization; details: powder filled vial sterilized under gamma irradiation
[4] = water solubility for preparing injection dilution
[5] = anoxia (<0.01% O2), read-out: IC50 Average for Cpd.11Ms ANX (SD)
[6] = normoxia (21% O2), read-out: IC50 Average for Cpd.11Ms NRX (SD)

## CCN1CCN(C(=O)c2cc(N(CCBr)CCOS(C)(=O)=O)c(S(C)(=O)=O)cc2[N+](=O)[O-])CC1.CS(=O)(=O)O [Cpd.11 Ms, 4-(5-((2-bromoethyl) (2-((methylsulfonyl)oxy)ethyl)amino)-4-(methylsulfonyl)-2-nitrobenzoyl)-1-ethylpiperazin-1-ium methanesulfonate]
BT-474; HCR=IC50 normoxia/IC50 anoxia
  Average of HCR (SD): 102.6 (15.2)
BT-474; [5]
  IC50: 14.8 µM
BT-474; [6]
  IC50: > 1500 µM
BxPC-3; HCR=IC50 normoxia/IC50 anoxia
  Average of HCR (SD): 22.7 (4.2)
BxPC-3; [5]
  IC50: 68.2 µM
BxPC-3; [6]
  IC50: > 1500 µM
DMS114; HCR=IC50 normoxia/IC50 anoxia
  Average of HCR (SD): 96.3 (26.2)
DMS114; DMS-114, anoxia (<0.01% O2), read-out: IC50 Average for Cpd.11Ms ANX (SD)
  IC50: 6.2 µM
DMS114; DMS-114, normoxia (21% O2), read-out: IC50 Average for Cpd.11Ms NRX (SD)
  IC50: 564 µM
HCC1937; HCR=IC50 normoxia/IC50 anoxia
  Average of HCR (SD): 28.8 (8.3)
HCC1937; [5]
  IC50: 53.1 µM
HCC1937; [6]
  IC50: 1450 µM
MDA-MB-231; HCR=IC50 normoxia/IC50 anoxia
  Average of HCR (SD): 10.4 (3.0)
MDA-MB-231; [5]
  IC50: 121 µM
MDA-MB-231; [6]
  IC50: 1250 µM
NCI-H1650; HCR=IC50 normoxia/IC50 anoxia
  Average of HCR (SD): 28.2 (5.4)
NCI-H1650; [5]
  IC50: 45.1 µM
NCI-H1650; [6]
  IC50: 1250 µM
NCI-H1975; HCR=IC50 normoxia/IC50 anoxia
  Average of HCR (SD): 52.6 (36.4)
NCI-H1975; [5]
  IC50: 28.7 µM
NCI-H1975; [6]
  IC50: 1140 µM
PANC-1; HCR=IC50 normoxia/IC50 anoxia
  Average of HCR (SD): 24.0 (1.0)
PANC-1; [5]
  IC50: 43.6 µM
PANC-1; [6]
  IC50: 1040 µM
[1]; across cell lines
  hypoxic cytotoxic ratio: ≥ 10
[1]; pre-clinical models
  cytotoxicity against cancer cell lines resistant to cisplatin and/or chlorambucil: highly cytotoxic
SW1990 tumor xenograft; listed as Cpd.11Ms
  Anti-tumor effect: No impact
SW1990 tumor xenograft
  Anti-tumor effect: not observed
[2]
  tumour growth: tumour growth rate reduction
MiaPaca-2
  sensitivity in anoxic conditions in vitro: highly Cpd.11 Ms-sensitive
[3]
  stability to sterilizing conditions: sufficiently stable
[4]
  solubility: ≥ 100 mg/mL
